Measurements published in US9663508B2, “Biaryl acyl-sulfonamide compounds as sodium channel inhibitors” (AMGEN INC., priority 2013, dated 2017).

Target: human Nav1.7 (Homo sapiens (Human), UniProt Q15858)
Test: Nav 1.7 in vitro PatchXpress (PX) assay
Format: cell-based
Conditions: not given

Chain of human Nav1.7 (Q15858 whole entry): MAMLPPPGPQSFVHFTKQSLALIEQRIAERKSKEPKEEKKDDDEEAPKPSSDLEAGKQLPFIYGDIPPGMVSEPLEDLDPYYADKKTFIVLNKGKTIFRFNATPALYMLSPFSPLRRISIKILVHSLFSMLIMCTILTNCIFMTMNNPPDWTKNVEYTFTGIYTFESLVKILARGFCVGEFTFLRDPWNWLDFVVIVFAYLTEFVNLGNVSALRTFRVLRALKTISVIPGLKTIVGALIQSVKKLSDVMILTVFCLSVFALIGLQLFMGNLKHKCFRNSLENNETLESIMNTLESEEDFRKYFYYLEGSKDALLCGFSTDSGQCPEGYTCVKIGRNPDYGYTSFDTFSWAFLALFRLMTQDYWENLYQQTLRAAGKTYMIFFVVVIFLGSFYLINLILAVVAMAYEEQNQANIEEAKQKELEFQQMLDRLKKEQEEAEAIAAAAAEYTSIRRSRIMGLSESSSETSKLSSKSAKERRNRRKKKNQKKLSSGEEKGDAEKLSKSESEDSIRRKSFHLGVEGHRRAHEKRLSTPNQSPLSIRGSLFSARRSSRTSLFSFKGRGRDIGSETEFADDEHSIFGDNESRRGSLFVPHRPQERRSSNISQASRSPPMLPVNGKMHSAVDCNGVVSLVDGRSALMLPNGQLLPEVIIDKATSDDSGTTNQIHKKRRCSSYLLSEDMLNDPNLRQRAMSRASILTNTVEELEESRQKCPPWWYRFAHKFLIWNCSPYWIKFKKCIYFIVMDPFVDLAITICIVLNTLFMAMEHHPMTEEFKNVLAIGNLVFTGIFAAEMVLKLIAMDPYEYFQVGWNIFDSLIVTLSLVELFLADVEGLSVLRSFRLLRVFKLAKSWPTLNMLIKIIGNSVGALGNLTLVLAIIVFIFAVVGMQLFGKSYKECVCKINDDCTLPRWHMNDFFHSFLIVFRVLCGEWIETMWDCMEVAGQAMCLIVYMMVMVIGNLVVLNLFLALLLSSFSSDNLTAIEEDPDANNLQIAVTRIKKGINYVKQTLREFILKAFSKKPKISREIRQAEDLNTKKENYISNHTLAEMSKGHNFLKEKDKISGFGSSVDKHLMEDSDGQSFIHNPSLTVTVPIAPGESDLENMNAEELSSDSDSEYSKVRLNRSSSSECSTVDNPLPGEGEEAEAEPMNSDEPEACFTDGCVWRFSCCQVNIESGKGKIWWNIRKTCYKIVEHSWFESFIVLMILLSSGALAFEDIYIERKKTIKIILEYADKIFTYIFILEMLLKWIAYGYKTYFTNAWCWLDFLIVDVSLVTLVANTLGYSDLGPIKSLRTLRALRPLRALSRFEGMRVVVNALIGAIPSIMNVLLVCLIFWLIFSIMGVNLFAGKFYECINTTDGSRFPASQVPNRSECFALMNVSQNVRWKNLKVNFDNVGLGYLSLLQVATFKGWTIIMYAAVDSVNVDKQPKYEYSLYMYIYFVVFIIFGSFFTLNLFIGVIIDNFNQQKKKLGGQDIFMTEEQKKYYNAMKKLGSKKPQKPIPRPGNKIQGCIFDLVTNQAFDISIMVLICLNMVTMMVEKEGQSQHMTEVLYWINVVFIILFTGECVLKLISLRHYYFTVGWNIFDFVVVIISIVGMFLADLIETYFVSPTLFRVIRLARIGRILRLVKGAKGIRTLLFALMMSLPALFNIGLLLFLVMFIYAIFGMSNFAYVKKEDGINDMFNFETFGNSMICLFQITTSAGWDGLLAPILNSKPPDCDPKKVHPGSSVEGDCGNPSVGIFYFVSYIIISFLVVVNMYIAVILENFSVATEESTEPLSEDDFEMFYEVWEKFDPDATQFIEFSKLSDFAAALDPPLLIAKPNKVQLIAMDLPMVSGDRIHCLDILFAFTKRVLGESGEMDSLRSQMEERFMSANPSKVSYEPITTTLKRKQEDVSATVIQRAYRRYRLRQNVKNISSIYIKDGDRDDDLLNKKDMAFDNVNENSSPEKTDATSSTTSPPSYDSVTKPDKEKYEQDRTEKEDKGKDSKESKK

`COc1cc(C(=O)NS(C)(=O)=O)ccc1-c1cnc(Oc2cccc(Cl)c2C)c(Cl)c1` [Example 579, 4-(5-chloro-6-(3-chloro-2-methylphenoxy)-3-pyridinyl)-3-methoxy-N-(methylsulfonyl)benzamide] and `COc1cc(C(=O)NS(C)(=O)=O)ccc1-c1cnc(Oc2cc(C)c(Cl)c(C)c2)c(Cl)c1` [Example 364, 4-(5-chloro-6-(4-chloro-3,5-dimethylphenoxy)-3-pyridinyl)-3-methoxy-N-(methylsulfonyl)benzamide] are within 1.5-fold of each other in IC50: 48.6 nM for the first, 64.3 nM for the second.

Going from `Cc1ccc(Cl)c(Oc2ncc(-c3ccc(C(=O)NS(C)(=O)=O)cc3OC3COC3)cc2Cl)c1` [Example 423, 4-(5-chloro-6-(2-chloro-5-methylphenoxy)-3-pyridinyl)-N-(methylsulfonyl)-3-(3-oxetanyloxy)benzamide] to `COc1ncc(Oc2ncc(-c3ccc(C(=O)NS(C)(=O)=O)cc3OC3COC3)cc2Cl)cc1Cl` [Example 412, 4-(5-chloro-6-((5-chloro-6-methoxy-3-pyridinyl)oxy)-3-pyridinyl)-N-(methylsulfonyl)-3-(3-oxetanyloxy)benzamide], the IC50 rises from 38.6 nM to 98.9 nM (2.6-fold).

`CS(=O)(=O)NC(=O)c1ccc(-c2cnc(Oc3cccc(C(F)(F)F)c3)c(Cl)c2)c(OC(F)F)c1` [Example 456, 4-(5-chloro-6-(3-(trifluoromethyl)phenoxy)-3-pyridinyl)-3-(difluoromethoxy)-N-(methylsulfonyl)benzamide] and `CS(=O)(=O)NC(=O)c1ccc(-c2cnc(Oc3ccccc3C(F)(F)F)c(Cl)c2)c(OC(F)F)c1` [Example 464, 4-(5-chloro-6-(2-(trifluoromethyl)phenoxy)-3-pyridinyl)-3-(difluoromethoxy)-N-(methylsulfonyl)benzamide] are within 1.5-fold of each other in IC50: 64 nM for the first, 92.4 nM for the second.

`CCC(CC)Oc1ncc(-c2cc(F)c(C(=O)NS(C)(=O)=O)cc2Cl)cc1Cl` [Example 601, 5-chloro-4-(5-chloro-6-(1-ethylpropoxy)-3-pyridinyl)-2-fluoro-N-(methylsulfonyl)benzamide] and `CC[C@H](Oc1ncc(-c2cc(F)c(C(=O)NS(C)(=O)=O)cc2C)cc1Cl)c1cccc(Cl)c1` [Example 676, 4-(5-chloro-6-(((1S)-1-(3-chlorophenyl)propyl)oxy)-3-pyridinyl)-2-fluoro-5-methyl-N-(methylsulfonyl)benzamide] are within 1.5-fold of each other in IC50: 75.4 nM for the first, 58.6 nM for the second.

`CS(=O)(=O)NC(=O)c1ccc(-c2cnc(OCCc3ccccc3)c(Cl)c2)c(OC(F)F)c1` [Example 467, 4-(5-chloro-6-(2-phenylethoxy)-3-pyridinyl)-3-(difluoromethoxy)-N-(methylsulfonyl)benzamide] and `CS(=O)(=O)NC(=O)c1ccc(-c2cnc(Oc3cccc4ccccc34)c(Cl)c2)c(OC(F)F)c1` [Example 452, 4-(5-chloro-6-(1-naphthalenyloxy)-3-pyridinyl)-3-(difluoromethoxy)-N-(methylsulfonyl)benzamide] are within 1.5-fold of each other in IC50: 78.8 nM for the first, 59.9 nM for the second.

`Cc1ccc(Oc2ncc(-c3ccc(C(=O)NS(C)(=O)=O)cc3OC(F)F)cc2Cl)cc1Cl` [Example 449, 4-(5-chloro-6-(3-chloro-4-methylphenoxy)-3-pyridinyl)-3-(difluoromethoxy)-N-(methylsulfonyl)benzamide] and `Cc1ccc(Oc2ncc(-c3ccc(C(=O)NS(C)(=O)=O)cc3OC(F)F)cc2Cl)cc1C` [Example 459, 4-(5-chloro-6-(3,4-dimethylphenoxy)-3-pyridinyl)-3-(difluoromethoxy)-N-(methylsulfonyl)benzamide] are within 1.5-fold of each other in IC50: 79.2 nM for the first, 95 nM for the second.

`Cc1cc(C(=O)NS(C)(=O)=O)c(F)cc1-c1cnc(O[C@@H](c2ccccc2)C(F)(F)F)c(Cl)c1` [Example 684, 4-(5-chloro-6-((1S)-2,2,2-trifluoro-1-phenylethoxy)-3-pyridinyl)-2-fluoro-5-methyl-N-(methylsulfonyl)benzamide] and `Cc1cc(C(=O)NS(C)(=O)=O)c(F)cc1-c1cnc(O[C@@H]2CCCC(C)(C)C2)c(Cl)c1` [Example 687, 4-(5-chloro-6-(((1R)-3,3-dimethylcyclohexyl)oxy)-3-pyridinyl)-2-fluoro-5-methyl-N-(methylsulfonyl)benzamide, 4-(5-chloro-6-(((1S)-3,3-dimethylcyclohexyl)oxy)-3-pyridinyl)-2-fluoro-5-methyl-N-(methylsulfonyl)benzamide] are within 1.5-fold of each other in IC50: 94.1 nM for the first, 75.9 nM for the second.

`CS(=O)(=O)NC(=O)c1ccc(-c2cnc(Oc3cccc4ccccc34)c(Cl)c2)c(OC2COC2)c1` [Example 419, 4-(5-chloro-6-(1-naphthalenyloxy)-3-pyridinyl)-N-(methylsulfonyl)-3-(3-oxetanyloxy)benzamide] and `CS(=O)(=O)NC(=O)c1ccc(-c2cnc(Oc3ccc4ccccc4c3)c(Cl)c2)c(OC(F)F)c1` [Example 446, 4-(5-chloro-6-(2-naphthalenyloxy)-3-pyridinyl)-3-(difluoromethoxy)-N-(methylsulfonyl)benzamide] are within 1.5-fold of each other in IC50: 98 nM for the first, 74.8 nM for the second.

`COc1cc(C(=O)NS(C)(=O)=O)ccc1-c1cnc(Oc2ccc(Cl)c(Cl)c2)c(C#N)c1` [Example 692, 4-(5-cyano-6-(3,4-dichlorophenoxy)-3-pyridinyl)-3-methoxy-N-(methylsulfonyl)benzamide] and `COc1cc(C(=O)NS(C)(=O)=O)ccc1-c1cnc(Oc2ccc3c(c2)CCC3)c(Cl)c1` [Example 580, 4-(5-chloro-6-(2,3-dihydro-1H-inden-5-yloxy)-3-pyridinyl)-3-methoxy-N-(methylsulfonyl)benzamide] are within 1.5-fold of each other in IC50: 60.3 nM for the first, 66.1 nM for the second.

Same assay, conditions: in-vitro Nav 1.7 PX data

Going from `CC[C@@H](Oc1ncc(-c2cc(F)c(C(=O)NS(C)(=O)=O)cc2OC)cc1Cl)C(F)(F)F` [Example 736, 4-(5-chloro-6-(((1R)-1-(trifluoromethyl)propyl)oxy)-3-pyridinyl)-2-fluoro-5-methoxy-N-(methylsulfonyl)benzamide] to “4-(3-Chloro-4′-Methoxy-2′-Methyl-[2,3′-Bipyridin]-5-yl)-2-Fluoro-5-Methyl-N-(Methyl Sulfonyl)Benzamide [Example 840]”, the IC50 rises from 84 nM to 8350 nM (99-fold). The first is the more potent here.

Compared with `Cc1cc(C(=O)NS(C)(=O)=O)c(F)cc1-c1cnc(-c2cc(F)cc(F)c2)c(Cl)c1` [Example 834, 4-(5-Chloro-6-(3,5-Difluorophenyl)-3-Pyridinyl)-2-Fluoro-5-Methyl-N-(Methylsulfonyl)Benzamide], `COc1cc(C(=O)NS(C)(=O)=O)c(F)cc1-c1cnc(Oc2c(F)ccc(C)c2F)c(Cl)c1` [Example 759, 4-(5-chloro-6-(2,6-difluoro-3-methylphenoxy)-3-pyridinyl)-2-fluoro-5-methoxy-N-(methylsulfonyl)benzamide] is 5.2-fold lower in IC50: 498 nM for the first, 95.4 nM for the second.

`CS(=O)(=O)NC(=O)c1ccc(-c2cnc(Oc3c(F)ccc(F)c3F)c(Cl)c2)c(Cl)c1` [Example 778, 3-chloro-4-(5-chloro-6-(2,3,6-trifluorophenoxy)-3-pyridinyl)-N-(methylsulfonyl)benzamide] and `COc1cc(C(=O)NS(C)(=O)=O)c(F)cc1-c1cnc(Sc2cc(C)cc(C)c2)c(Cl)c1` [Example 729, 4-(5-chloro-6-((3,5-dimethylphenyl)sulfanyl)-3-pyridinyl)-2-fluoro-5-methoxy-N-(methylsulfonyl)benzamide] are within 1.5-fold of each other in IC50: 73.4 nM for the first, 69.5 nM for the second.

First: COc1cc(C(=O)NS(C)(=O)=O)c(F)cc1-c1cnc(OCc2ccc(Cl)cc2)c(Cl)c1 [Example 750, 4-(5-chloro-6-((4-chlorobenzyl)oxy)-3-pyridinyl)-2-fluoro-5-methoxy-N-(methylsulfonyl)benzamide]
Second: COc1cc(C(=O)NS(C)(=O)=O)c(F)cc1-c1cnc(OCC2C(C)(C)C2(C)C)c(Cl)c1 [Example 718, 4-(5-chloro-6-((2,2,3,3-tetramethylcyclopropyl)methoxy)-3-pyridinyl)-2-fluoro-5-methoxy-N-(methylsulfonyl)benzamide]
The IC50 of the first is 1.9-fold lower: 74.7 nM for the first, 145 nM for the second. The first is the more potent here.

`COc1cc(C(=O)NS(C)(=O)=O)ccc1-c1cnc(Cc2ccc(Cl)c(Cl)c2)c(Cl)c1` [Example 793, 4-(5-chloro-6-(3,4-dichlorobenzyl)pyridin-3-yl)-3-methoxy-N-(methylsulfonyl)benzamide] and `COc1cc(C(=O)NS(C)(=O)=O)c(F)cc1-c1cnc(Oc2cc(C)ccc2Cl)c(Cl)c1` [Example 752, 4-(5-chloro-6-(2-chloro-5-methylphenoxy)-3-pyridinyl)-2-fluoro-5-methoxy-N-(methylsulfonyl)benzamide] are within 1.5-fold of each other in IC50: 50.4 nM for the first, 42.1 nM for the second.

First: CCS(=O)(=O)NC(=O)c1ccc(-c2cnc(O[C@H]3C[C@H]4CC[C@@H]3C4)c(Cl)c2)c(OC)c1 [Example 792, 4-(6-((1R,2S,4S)-bicyclo[2.2.1]hept-2-yloxy)-5-chloro-3-pyridinyl)-N-(ethylsulfonyl)-3-methoxybenzamide]
Second: COc1cc(C(=O)NS(C)(=O)=O)c(F)cc1-c1cnc(Sc2ccc(C)cc2)c(Cl)c1 [Example 728, 4-(5-chloro-6-((4-methylphenyl)sulfanyl)-3-pyridinyl)-2-fluoro-5-methoxy-N-(methylsulfonyl)benzamide]
The IC50 of the first is 1.7-fold higher: 85.3 nM for the first, 49.5 nM for the second.

Compared with `Cc1cc(C(=O)NS(C)(=O)=O)c(F)cc1-c1cnc(Oc2cc(Cl)cc(Cl)c2)c(C(F)(F)F)c1` [Example 817, 4-(6-(3,5-Dichlorophenoxy)-5-(Trifluoromethyl)Pyridin-3-yl)-2-Fluoro-5-Methyl-N-(Methylsulfonyl)Benzamide], `Cc1cc(C(=O)NS(=O)(=O)c2nccs2)c(F)cc1-c1cnc(OC2CCC2)c(Cl)c1` [Example 795, 4-(5-chloro-6-(cyclobutyloxy)-3-pyridinyl)-2-fluoro-5-methyl-N-(1,3-thiazol-2-ylsulfonyl)benzamide] is 3-fold lower in IC50: 169 nM for the first, 57.1 nM for the second.

`COc1cc(C(=O)NS(C)(=O)=O)c(F)cc1-c1cnc(OC(C)C2CCC2)c(Cl)c1` (centres unmarked) [Example 719, 4-(5-Chloro-6-(1-Cyclobutylethoxy)Pyridin-3-yl)-2-Fluoro-5-Methoxy-N-(Methylsulfonyl)Benzamide] and `COc1cc(C(=O)NS(C)(=O)=O)c(F)cc1-c1cnc(N[C@H]2CC23CCCC3)c(Cl)c1` [Example 771, 4-(5-chloro-6-((1S)-spiro[2.4]hept-1-ylamino)-3-pyridinyl)-2-fluoro-5-methoxy-N-(methylsulfonyl)benzamide] are within 1.5-fold of each other in IC50: 89 nM for the first, 86.8 nM for the second.

Compound `CCS(=O)(=O)NC(=O)c1ccc(-c2cnc(Oc3c(F)ccc(F)c3F)c(Cl)c2)c(OC)c1` [Example 791, 4-(5-chloro-6-(2,3,6-trifluorophenoxy)-3-pyridinyl)-N-(ethylsulfonyl)-3-methoxybenzamide] has an IC50 of 39.4 nM.
